# Results: patent US10131652B2, “Pyrimidinyloxy benzene derivatives as herbicides” (E. I. DU PONT DE NEMOURS AND COMPANY, priority 2014, dated 2018)
# Experiments:
# Type in all cases: in vivo
# [1] = system: barnyardgrass (Echinochloa crus-galli); experiment: Test B pre-/postemergence plant response
# Procedure, shortened: (§1)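 Ratings reflect visual injury versus untreated controls, from 0 for no effect to 100 for complete control, assessed roughly 10 days after treatment. Formulation: non-phytotoxic solvent mix with surfactant; pre- and postemergence sprays on plants grown in loam soil and sand.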
# corn (Zea mays) [2] = experiment: Test B pre-/postemergence plant response
# Procedure, shortened: as §1
# [3] = system: giant foxtail (Setaria faberii); experiment: Test B pre-/postemergence plant response
# Procedure, shortened: as §1
# [4] = system: pigweed (Amaranthus retroflexus); experiment: Test B pre-/postemergence plant response
# Procedure, shortened: as §1
# [5] = system: wheat (Triticum aestivum); experiment: Test B pre-/postemergence plant response
# Procedure, shortened: as §1
# [6] = system: Italian ryegrass (Lolium multiflorum); experiment: Test D pre-/postemergence plant response
# Procedure, shortened: (§2)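 Preemergence: seeds in loam/sand blend treated with test chemicals in non-phytotoxic solvent with surfactant; postemergence: plants at 2–18 cm (1- to 4-leaf stage) in peat-based medium sprayed likewise. Greenhouse 13 to 15 days, then visual rating vs controls, 0 (no effect) to 100 (complete control).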
# [7] = system: barnyardgrass (Echinochloa crus-galli); experiment: Test D pre-/postemergence plant response
# Procedure, shortened: as §2
# [8] = system: blackgrass (Alopecurus myosuroides); experiment: Test D pre-/postemergence plant response
# Procedure, shortened: as §2
# corn (Zea mays) [9] = experiment: Test D pre-/postemergence plant response
# Procedure, shortened: as §2
# [10] = system: galium (catchweed bedstraw, Galium aparine); experiment: Test D pre-/postemergence plant response
# Procedure, shortened: as §2
# [11] = system: giant foxtail (Setaria faberii); experiment: Test D pre-/postemergence plant response
# Procedure, shortened: as §2
# [12] = system: lambsquarters (Chenopodium album); experiment: Test D pre-/postemergence plant response
# Procedure, shortened: as §2
# [13] = system: morningglory (Ipomoea coccinea); experiment: Test D pre-/postemergence plant response
# Procedure, shortened: as §2
# [14] = system: pigweed (Amaranthus retroflexus); experiment: Test D pre-/postemergence plant response
# Procedure, shortened: as §2
# [15] = system: ragweed (common ragweed, Ambrosia elatior); experiment: Test D pre-/postemergence plant response
# Procedure, shortened: as §2
# [16] = system: waterhemp (common waterhemp, Amaranthus rudis); experiment: Test D pre-/postemergence plant response
# Procedure, shortened: as §2
# [17] = 31 g ai/ha, Preemergence, 0 to 100 scale where 0 is no effect and 100 is complete control
# [18] = 125 g ai/ha, postemergence, 0 to 100 scale, 0 no effect, 100 complete control
# [19] = Postemergence, 31 g ai/ha, 0 to 100 scale (0 no effect, 100 complete control)
# [20] = Preemergence, 125 g ai/ha, 0 to 100 scale (0 no effect, 100 complete control)
# [21] = Postemergence, 31 g ai/ha, scale 0 to 100 (0 no effect, 100 complete control)
# [22] = Postemergence, 62 g ai/ha, scale 0 to 100, 0 no effect, 100 complete control
# [23] = Postemergence, 125 g ai/ha, scale 0 to 100, 0 no effect, 100 complete control
# [24] = Preemergence, 16 g ai/ha, scale 0 to 100 (0 no effect, 100 complete control)
# [25] = Preemergence, 31 g ai/ha, scale 0 to 100 (0 no effect, 100 complete control)
# [26] = Preemergence, 62 g ai/ha, scale 0 to 100 (0 no effect, 100 complete control)
smiles,measurement,setting,value
Cc1cc(-c2c(F)cccc2Oc2ncc(Cl)cn2)on1 [Compound 229],"Plant response rating, Barnyardgrass",[1]; [17],50
same,"Plant response rating, Barnyardgrass",[1]; [18],70
same,"Plant response rating, Barnyardgrass",[1]; [19],20
same,Barnyardgrass plant response rating,[1]; [20],90
same,"Plant response rating, Corn",corn (Zea mays) [2]; [18],30
same,"Plant response rating, Corn",corn (Zea mays) [2]; [19],0
same,"Plant response rating, Foxtail, Giant",[3]; [17],90
same,"Plant response rating, Foxtail, Giant",[3]; [18],80
same,"Plant response rating, Foxtail, Giant",[3]; [19],50
same,"Foxtail, Giant plant response rating",[3]; [20],90
same,"Plant response rating, Pigweed",[4]; [17],100
same,"Plant response rating, Pigweed",[4]; [18],100
same,"Plant response rating, Pigweed",[4]; [19],70
same,Pigweed plant response rating,[4]; [20],100
same,"Plant response rating, Wheat",[5]; [18],40
same,"Plant response rating, Wheat",[5]; [19],0
same,"Plant response rating (scale 0 to 100), Ryegrass, Italian","[6]; Postemergence, 16 g ai/ha",0
same,"Ryegrass, Italian plant response rating",[6]; [21],0
same,"Ryegrass, Italian plant response rating",[6]; [22],0
same,"Plant response rating, Ryegrass, Italian",[6]; [23],5
same,"Plant response rating (scale 0 to 100), Ryegrass, Italian","[6]; Preemergence, 125 g ai/ha",60
same,"Plant response rating, Ryegrass, Italian",[6]; [24],0
same,"Plant response rating, Ryegrass, Italian",[6]; [25],20
same,"Plant response rating, Ryegrass, Italian",[6]; [26],20
same,"Plant response rating (scale 0 to 100), Barnyardgrass","[7]; Postemergence, 16 g ai/ha",5
same,Barnyardgrass plant response rating,[7]; [21],5
same,"Plant response rating, Barnyardgrass",[7]; [22],5
same,"Plant response rating, Barnyardgrass",[7]; [23],10
same,"Plant response rating (scale 0 to 100), Barnyardgrass","[7]; Preemergence, 125 g ai/ha",100
same,"Plant response rating, Barnyardgrass",[7]; [24],15
same,"Plant response rating, Barnyardgrass",[7]; [25],55
same,"Plant response rating, Barnyardgrass",[7]; [26],65
same,"Plant response rating (scale 0 to 100), Blackgrass","[8]; Postemergence, 16 g ai/ha",0
same,Blackgrass plant response rating,[8]; [21],10
same,"Plant response rating, Blackgrass",[8]; [22],15
same,"Plant response rating, Blackgrass",[8]; [23],10
same,"Plant response rating (scale 0 to 100), Blackgrass","[8]; Preemergence, 125 g ai/ha",85
same,"Plant response rating, Blackgrass",[8]; [24],15
same,"Plant response rating, Blackgrass",[8]; [25],15
same,"Plant response rating, Blackgrass",[8]; [26],70
same,"Plant response rating (scale 0 to 100), Corn","corn (Zea mays) [9]; Postemergence, 16 g ai/ha",5
same,Corn plant response rating,corn (Zea mays) [9]; [21],20
same,"Plant response rating, Corn",corn (Zea mays) [9]; [22],5
same,"Plant response rating, Corn",corn (Zea mays) [9]; [23],5
same,"Plant response rating (scale 0 to 100), Corn","corn (Zea mays) [9]; Preemergence, 125 g ai/ha",40
same,"Plant response rating, Corn",corn (Zea mays) [9]; [24],0
same,"Plant response rating, Corn",corn (Zea mays) [9]; [25],5
same,"Plant response rating, Corn",corn (Zea mays) [9]; [26],5
same,"Plant response rating (scale 0 to 100), Galium","[10]; Postemergence, 16 g ai/ha",70
same,Galium plant response rating,[10]; [21],70
same,"Plant response rating, Galium",[10]; [22],65
same,"Plant response rating, Galium",[10]; [23],80
same,"Plant response rating (scale 0 to 100), Galium","[10]; Preemergence, 125 g ai/ha",98
same,"Plant response rating, Galium",[10]; [24],40
same,"Plant response rating, Galium",[10]; [25],80
same,"Plant response rating, Galium",[10]; [26],98
same,"Plant response rating (scale 0 to 100), Foxtail, Giant","[11]; Postemergence, 16 g ai/ha",0
same,"Foxtail, Giant plant response rating",[11]; [21],5
same,"Plant response rating, Foxtail, Giant",[11]; [22],5
same,"Plant response rating, Foxtail, Giant",[11]; [23],15
same,"Plant response rating (scale 0 to 100), Foxtail, Giant","[11]; Preemergence, 125 g ai/ha",98
same,"Plant response rating, Foxtail, Giant",[11]; [24],5
same,"Plant response rating, Foxtail, Giant",[11]; [25],70
same,"Plant response rating, Foxtail, Giant",[11]; [26],90
same,"Plant response rating (scale 0 to 100), Lambsquarters","[12]; Postemergence, 16 g ai/ha",60
same,Lambsquarters plant response rating,[12]; [21],70
same,Lambsquarters plant response rating,[12]; [22],70
same,"Plant response rating, Lambsquarters",[12]; [23],85
same,"Plant response rating (scale 0 to 100), Lambsquarters","[12]; Preemergence, 125 g ai/ha",95
same,"Plant response rating, Lambsquarters",[12]; [24],35
same,"Plant response rating, Lambsquarters",[12]; [25],80
same,"Plant response rating, Lambsquarters",[12]; [26],80
same,"Plant response rating (scale 0 to 100), Morningglory","[13]; Postemergence, 16 g ai/ha",40
same,Morningglory plant response rating,[13]; [21],25
same,Morningglory plant response rating,[13]; [22],25
same,"Plant response rating, Morningglory",[13]; [23],35
same,"Plant response rating (scale 0 to 100), Morningglory","[13]; Preemergence, 125 g ai/ha",45
same,"Plant response rating, Morningglory",[13]; [24],0
same,"Plant response rating, Morningglory",[13]; [25],0
same,"Plant response rating, Morningglory",[13]; [26],35
same,"Plant response rating (scale 0 to 100), Pigweed","[14]; Postemergence, 16 g ai/ha",55
same,Pigweed plant response rating,[14]; [21],60
same,Pigweed plant response rating,[14]; [22],70
same,"Plant response rating, Pigweed",[14]; [23],80
same,"Plant response rating (scale 0 to 100), Pigweed","[14]; Preemergence, 125 g ai/ha",100
same,"Plant response rating, Pigweed",[14]; [24],100
same,"Plant response rating, Pigweed",[14]; [25],100
same,"Plant response rating, Pigweed",[14]; [26],100
same,"Plant response rating (scale 0 to 100), Ragweed","[15]; Postemergence, 16 g ai/ha",35
same,Ragweed plant response rating,[15]; [21],50
same,Ragweed plant response rating,[15]; [22],70
same,"Plant response rating, Ragweed",[15]; [23],60
same,"Plant response rating (scale 0 to 100), Ragweed","[15]; Preemergence, 125 g ai/ha",95
same,"Plant response rating, Ragweed",[15]; [24],35
same,"Plant response rating, Ragweed",[15]; [25],50
same,"Plant response rating, Ragweed",[15]; [26],55
same,"Plant response rating (scale 0 to 100), Waterhemp","[16]; Postemergence, 16 g ai/ha",60
same,Waterhemp plant response rating,[16]; [21],70
same,Waterhemp plant response rating,[16]; [22],80
same,"Plant response rating, Waterhemp",[16]; [23],85
same,"Plant response rating (scale 0 to 100), Waterhemp","[16]; Preemergence, 125 g ai/ha",98
same,"Plant response rating, Waterhemp",[16]; [24],95
same,"Plant response rating, Waterhemp",[16]; [25],100
same,"Plant response rating, Waterhemp",[16]; [26],98
